Assay [1] deals with Listeria monocytogenes 092. Kind of assay: Experiment 2: octanoate esterase substrates with different Indoxyl-based chromogenic markers. As to conditions: 37° C., substrate 250 mg/l. Also on record: key to I (intensity of the color): —: the symbol “-” corresponds to the absence of color or intensity; 0 corresponds to no activity; 0.1 corresponds to a trace of color; 0.5 corresponds to very pale coloration; 1 corresponds to clear but low-intensity coloration; 1.5 corresponds to a degree of coloration intermediate between scores 1 and 2; 2 corresponds to clear coloration of moderate intensity; 2.5 corresponds to a degree of coloration intermediate between scores 2 and 3; 3 corresponds to intense coloration; 3.5 corresponds to a degree of coloration intermediate between scores 3 and 4; 4 corresponds to very intense coloration. In kind it is cell-based. Here is the method: (§1) In Table 1 above, as in the following Tables, C represents the color of the colonies after incubation, I represents the intensity of the color, and the symbol “-” corresponds to the absence of color or intensity; finally, IT defines the incubation time. It should be noted that the intensity of the color is scored on an arbitrary scale but one which is consistent for all the biological specimens and media tested. This scale is valid for this experiment as well as all those that follow. It can be defined in the following way: • 0 corresponds to no activity, • 0.1 corresponds to a trace of color, • 0.5 corresponds to very pale coloration, • 1 corresponds to clear but low-intensity coloration, • 1.5 corresponds to a degree of coloration intermediate between scores 1 and 2, • 2 corresponds to clear coloration of moderate intensity, • 2.5 corresponds to a degree of coloration intermediate between scores 2 and 3, • 3 corresponds to intense coloration, • 3.5 corresponds to a degree of coloration intermediate between scores 3 and 4, • 4 corresponds to very intense coloration.
A stock solution of each substrate at a concentration of 40 g/l was made up in a mixture of 40% Dimethylsulfoxide and 60% Tween 20. An appropriate volume was added to four Columbia-type media while cooling to give a final substrate concentration of 250 mg/l. These dishes were divided into three areas and then each area was inoculated with a suspension (density=0.5 McFarland) of microorganisms taken from either the Applicant's own collection or the ATCC. The dishes were incubated for 48 hours at 37° C. The colonies which grew were examined by eye after 24 and 48 hours of incubation. Both the color and the intensity of the color of the colonies were recorded.

The subject of assay [2] is Listeria species. Kind of assay: Experiment 3: differentiation of Listeria species in liquid medium. In kind it is cell-based. Here is the method:
as §1
These substrates were lyophilized in the wells of API-type strips (Registered Trademark). Before use, the substrates contained in the wells were resuspended in an agar-free Columbia-type inoculation medium. […]
The intensity of the color of the colonies was recorded.

Molecules are shown by their SMILES.

`CCCCCCCC(=O)Oc1c[nH]c2ccc(Br)cc12` [Blue-C8, 5-Bromo-3-indolyl octanoate]: in assay [1] (IT 24 h), the “C (color of the colonies)” value is “gray” and the “I (intensity of the color)” value came to 1.5. In assay [1] (IT 48 h), the “C (color of the colonies)” value was “gray” and the “I (intensity of the color)” value worked out at 2.5.
As for `CCCCCCCC(=O)Oc1c[nH]c2cc(Cl)c(Br)cc12` [Magenta-C8, 5-Bromo-6-chloro-3-indolyl octanoate], in assay [1] (IT 24 h), the “C (color of the colonies)” value was “purple” and the “I (intensity of the color)” value is given as 3. Moreover, in assay [1] (IT 48 h), the “C (color of the colonies)” value is given as “purple” and the “I (intensity of the color)” value was 3.
Consider `CCCCCCCC(=O)Oc1c[nH]c2cc(Cl)ccc12` [Pink-C8, 6-Chloro-3-indolyl octanoate], for which the “C (color of the colonies)” value in assay [1] (IT 24 h) and in assay [1] (IT 48 h) was “pink” in each case. In addition, the “I (intensity of the color)” value in assay [1] (IT 24 h) is recorded as 1.5; in assay [1] (IT 48 h), 2.
Regarding `CCCCCCCC(=O)Oc1c[nH]c2ccc(Br)c(Cl)c12` [X-C8, 5-Bromo-4-chloro-3-indolyl octanoate], the “C (color of the colonies)” value in assay [1] (IT 24 h) and in assay [1] (IT 48 h) was “turquoise” throughout. Moreover, the “I (intensity of the color)” value in assay [1] (IT 24 h) is given as 3; in assay [1] (IT 48 h) it was 3.5. Further, the “differentiation between L. monocytogenes and other species belonging to the same genus” value in assay [2] is reported as “gave a contrast in color”.
